# Experimental data published in patent EP1102769B1, “TRICYCLIC CARBOXAMIDES” (SmithKline Beecham plc, priority 1998, dated 2000).
# System: maximal (tonic hindlimb extension) electroshock seizures in male rats
# Experiment: Maximal electroshock seizure (MEST) threshold test, rat model
# Assay type: in vivo, rats (Sprague Dawley)
# Conditions: 2 mg/kg p.o., suspension in methyl cellulose, one hour post dosing, statistically significant, percentage increase in CC50 compared to control
# Procedure: The maximal electroshock seizure (MEST) threshold test in rodents is particularly sensitive for detecting potential anticonvulsant properties ^1. In this model, anticonvulsant agents elevate the threshold to electrically-induced seizures whilst proconvulsants lower the seizure threshold.
# Mice (naive male, Charles River, U.K. CD-1 strain, 25 - 30g) are randomly assigned to groups of 10 - 20 and dosed orally or intraperitoneally at a dose volume of 10 ml/kg with various doses of compound (0.3 - 300 mg/kg) or vehicle. Mice are then subjected at 30 or 60 min post dose to a single electroshock (0.1 sec, 50Hz, sine wave form) administered via corneal electrodes. The mean current and standard error required to induce a tonic seizure in 50% (CC50) of the mice in a particular treatment group is determined by the 'up and down' method of Dixon and Mood (1948)^2. Statistical comparisons between vehicle- and drug-treated groups are made using the method of Litchfield and Wilcoxon (1949)^3. […]
# The threshold for maximal (tonic hindlimb extension) electroshock seizures in male rats (Sprague Dawley, 80 - 150g, 6 weeks old) was determined by a Hugo Sachs Electronik stimulator which delivered a constant current (0.3 sec duration; from 1-300mA in steps of 5-20mA). . […]
# The percentage increase or decrease in CC50 for each group compared to the control is calculated. […]
structure (smiles),measurement,value
"COc1ccc(C(=O)Nc2ccc3c(c2)C2CCCN2CC3)cc1C(F)(F)F (racemic) [Example 3, (+/-)N-(1,2,3,5,6,10b-hexahydropyrrolo[2,1-a]isoquinolin-9-yl)-4-methoxy-3-trifluoromethylbenzamide]",increase in seizure threshold,426%
